Assay results taken from US20120276047A1, “FUSED TRICYCLIC COMPOUNDS AND DERIVATIVES THEREOF USEFUL FOR THE TREATMENT OF VIRAL DISEASES” (priority 2009, published 2012).

Test system: HCV replicon cells
Assay: Cell-based HCV replicon assay
Settings: Hepatitis C virus, 72 h; replicon RNA level by real time PCR (Taqman), cells harvested on day 3; EC50 = concentration to achieve ΔCT=1 over baseline
Method: To measure cell-based anti-HCV activity of selected compounds of the present invention, replicon cells were seeded at 5000 cells/well in 96-well collagen I-coated Nunc plates in the presence of the test compound. Various concentrations of test compound, typically in 10 serial 2-fold dilutions, were added to the assay mixture, with the starting concentration ranging from 250 μM to 1 μM. The final concentration of DMSO was 0.5%, fetal bovine serum was 5%, in the assay media. Cells were harvested on day 3 by the addition of 1× cell lysis buffer (Ambion cat #8721). The replicon RNA level was measured using real time PCR (Taqman assay). The amplicon was located in 5B. The PCR primers were: 5B.2F, ATGGACAGGCGCCCTGA; 5B.2R, […]; the probe sequence was FAM-labeled CACGCCATGCGCTGCGG. GAPDH RNA was used as endogenous control and was amplified in the same reaction as NS5B (multiplex PCR) using primers and VIC-labeled probe recommended by the manufacturer (PE Applied Biosystem). […] Alternatively, to quantitate the absolute amount of replicon RNA, a standard curve was established by including serially diluted T7 transcripts of replicon RNA in the Taqman assay. […]

SMILES: COC(=O)N[C@@H](C(=O)N1CCC[C@H]1c1nc2ccc3cc(-c4ccc5c(ccc6nc([C@@H]7CCCN7C(=O)[C@H](NC(=O)OC)C(C)C)[nH]c65)n4)ccc3c2[nH]1)C(C)C [Compound 1]
- EC50: < 1 nM
